Assay results as given in patent US10752900B2, “Oligonucleotides for modulating gene expression and uses thereof” (BIOGENERA S.P.A., priority 2012, dated 2020).

Experiments:
MYCN gene [1] = test: QT-PCR, MYCN mRNA in Kelly cells; type: cell-based, human; settings: for mRNA inhibition (%): Table 1, PNA 1 μM, RNA extracted after 24 hours; for mRNA inhibit. (%): Table 11, MYCN, 2.5 μM
Experimental: (§1) For the purpose of assessing the ability of the oligonucleotides of the present invention to modulate the expression of the target genes, their ability to reduce the quantity of messenger RNA was analyzed using the Real-Time PCR technique.
(§2) For this purpose, use was made of 24-well plates, which were seeded with 5.0×10^4 cells with 0.3 ml of OPTI-MEM (GIBCO BRL) medium, 4% FBS and 2 mM L-glutammine (experiments in triplicate) per well.
(§3) The cells were incubated for 24 hours at 37° C., in an atmosphere containing 5% CO2 to permit adherence to the base of the wells.
Each oligonucleotide analyzed, except for the PNA oligonucleotides, was incubated beforehand with 2 μl of Lipofectamine 2000 (Invitrogen), with 0.3 mL of serum-free OPTI-MEM (GIBCO BRL) medium.
(§4) For each well, the oligonucleotides were analyzed at the following final concentrations: • the antisense oligonucleotides siRNA and siRNA gapmer (i.e. the oligonucleotides containing one or more monomers of chemically modified nucleic acids at the 3′ or 5′ end, while in the central portion they have monomers of nucleic acids that have not been modified or have been modified at the level of the phosphodiester bond as a phosphorothioate bond) were used at 200 nM; • the antisense oligonucleotides containing phosphorothioate DNA monomers, the RNA antigene oligonucleotides (agRNA) and the oligonucleotides containing DNA monomers and LNA monomers were used at 10 μM; • the morpholino oligonucleotides were used at a concentration of 1 μM, and • the PNA oligonucleotides were administered at a concentration of 1 μM.
(§5) The cells were treated with the oligonucleotides, adding FBS up to 4% 6 hours after administration of the same. After 24 hours the total RNA was extracted from each well and purified using the RNeasy Mini Kit (QIAGEN).
(§6) Assays were performed on 8 cell lines obtained from 5 different human tumours which are correlated with MYCN expression, i.e.: • as a neuroblastoma model use was made of the cell lines Kelly, IMR-32 (where the MYCN gene is amplified and superexpressed) and SKNBE2c and LAN1 (where the MYCN gene is amplified and superexpressed and the p53 gene is mutated); • as a rabdomiosarcoma model use was made of the cell line RH30, where the MYCN gene is amplified and superexpressed; • as a Wilms' tumour model use was made of the cell line WiT49, where the MYCN gene is amplified and superexpressed; • as a retinoblastoma model use was made of the cell line Y79, where the MYCN gene is amplified and superexpressed; and • as a model of small cell lung cancer use was made of the cell line H69 where the MYCN gene is amplified and superexpressed.
(§7) As a control, use was made of the same cell lines as listed above treated with sterile water instead of oligonucleotides. Each RNA sample was quantified (in duplicate) using a NanoDrop ND-1000 spectrophotometer (NanoDrop Technologies). The first strand of cDNA was produced using the cDNA Synthesis Kit for RT-PCR (Roche). For the cDNA synthesis reaction a total of 1 μg of RNA was used. For the real-time PCR, 10 ng of cDNA in a final volume of 20 μl was used with SYBR Green Master Mix 2× (Applied Biosystems) (3 identical experiments were conducted in triplicate). Two housekeeping genes were used as positive controls: GAPDH and beta-actin (ACTB).
(§8) The conditions of the QT-PCR reaction were: 10 min at 95° C., 20 sec at 95° C., and 30 sec at 60° C., for 50 cycles.
(§9) As far as the PNA oligonucleotides are concerned, the results regarding their ability to inhibit the transcription of the MYCN gene and proliferation of Kelly cells are shown in Table 1.
(§10) The oligonucleotides were tested in vitro (at a concentration of 2.5 μM) to determine their ability to inhibit the transcription of the gene they are directed against by measuring the levels of the gene messenger in cellular models in which the gene of interest is overexpressed. The methods used are the ones described in example 1. […]

NIH-3T3 = test: Cellular proliferation, NIH-3T3 fibroblastoid-type cells; type: cell-based; settings: Table 1; cells that do not express MYCN
Experimental: (§11) Cell viability was assessed by means of an ATP-Lite assay (Luminescence ATP Detection Assay System, PerkinElmer) and is reported as the ratio between the average signal of the treated wells compared to the average value of the wells of untreated control cells. The cells were processed following the instructions provided with the kit.
(§12) Moreover, the oligonucleotides having SEQ ID NO 1-23 were administered in lines of fibroblastoid-type cells (NIH-3T3 and Phoenix) and the results are shown in Table 1 (last two columns). […]

Phoenix = test: Cellular proliferation, Phoenix fibroblastoid-type cells; type: cell-based; settings: Table 1; cells that do not express MYCN
Experimental: as §11, §12

Kelly cells = test: Cellular proliferation assay (ATP-Lite), Kelly cells; type: cell-based, human
Experimental: (§13) For the purpose of assessing the gene modulation ability of the oligonucleotides of the present invention, the effect of their administration on cell viability was determined.
(§14) For this purpose 5×10^3 cells per well were seeded into 96-well cell culture plates (experiments conducted in triplicate) with 100 μl of OPTI-MEM (GIBCO BRL) medium containing 4% FBS and 2 mM of L-glutammine.
(§15) The PNA oligonucleotides were administered at different concentrations (1 μM-2.5 μM-5 μM-10 μM) in order to observe a dose-effect relationship.
As regards all the other oligonucleotides, the concentrations at which they administered are listed in the paragraph:
(§16) The viability of the treated cells was determined at 48, 72, 96 and 168 hours after treatment.
as §11
(§17) The assays were performed on the same cell lines used to determine the levels of the MYCN gene messenger and listed in the paragraph: Treatments with Oligonucleotides—QT-PCR.
as §9
(§18) The ability of the tested oligonucleotides to inhibit the messenger of the gene of interest was measured and the proliferative capacity of the cells following administration of the oligonucleotides was also assessed.

H69 = test: Cellular proliferation assay (ATP-Lite), H69 cells; type: cell-based, human; settings: Table 11, MYCN-directed PNA, 2.5 μM
Experimental: as §13, §14, §15, §16, §11, §17
(§19) The PNAs having SEQ ID NO: 1-12 were also tested on different cell lines which overexpress MYCN (Kelly, SKNBE2c, RH30, WiT49, WERI-Rb1 1 and H69). The results are shown in Table 6 and confirm the selectivity and specificity of the inhibition effect of the PNAs on the product of protein translation of the MYCN gene.
as §18

MYCN gene [2] = test: QT-PCR, MYCN mRNA in H69 cells; type: cell-based, human; settings: Table 11, MYCN, 2.5 μM
Experimental: as §1, §2, §3, §4, §5, §6, §7, §8, §19, §10

[3] = Table 1, treated vs untreated control cells
[4] = Table 11, MYCN-directed PNA, 2.5 μM

Row | Substance | mRNA inhibition (%) (MYCN gene [1]) | NIH-3T3 prolif. (%) (NIH-3T3) | Phoenix prolif. (%) (Phoenix) | Cell Prolif. (%) (Kelly cells; [3]) | Cell Prolif. (%) (H69) | mRNA inhibit. (%) (MYCN gene [1]) | mRNA inhibit. (%) (MYCN gene [2]) | Cell Prolif. (%) (Kelly cells; [4])
1 | SEQ ID NO: 13: PNA antigene oligonucleotide ACGCTCAGGGACCACG directed against MYCN (all peptide nucleic acid (PNA)) | 48 | 100 | 100 | 66 |  |  |  | 
2 | SEQ ID NO: 14: PNA antigene oligonucleotide CCCGGACGAAGATGAC directed against MYCN (all peptide nucleic acid (PNA)) | 40 | 100 | 100 | 70 |  |  |  | 
3 | SEQ ID NO: 15: PNA antigene oligonucleotide ACTGTGTTGGAGCCGA directed against MYCN (all peptide nucleic acid (PNA)) | 37 | 100 | 100 | 77 |  |  |  | 
4 | SEQ ID NO: 16: PNA CCTGTCGTAGACAGCT without groups of consecutive guanines, negative control (PNA backbone, chemistry not fully specified) [reference compound] | 14 | 100 | 100 | 90 |  |  |  | 
5 | SEQ ID NO: 17: PNA TGTGACAGTCATCTGT without groups of consecutive guanines, negative control (PNA backbone, chemistry not fully specified) [reference compound] | 10 | 100 | 100 | 98 |  |  |  | 
6 | SEQ ID NO: 18: PNA GTGACAGTCATCTGTC without groups of consecutive guanines, negative control (PNA backbone, chemistry not fully specified) [reference compound] | 10 | 100 | 100 | 98 |  |  |  | 
7 | SEQ ID NO: 19: PNA GACAGTCATCTGTCTG without groups of consecutive guanines, negative control (PNA backbone, chemistry not fully specified) [reference compound] | 5 | 100 | 100 | 100 |  |  |  | 
8 | SEQ ID NO: 20: PNA CGTCGATTTCTTCCTC without groups of consecutive guanines, negative control (PNA backbone, chemistry not fully specified) [reference compound] | 5 | 100 | 100 | 100 |  |  |  | 
9 | SEQ ID NO: 21: PNA CTCGAGTTTGACTCGC without groups of consecutive guanines, negative control (PNA backbone, chemistry not fully specified) [reference compound] | 1 | 100 | 100 | 100 |  |  |  | 
10 | SEQ ID NO: 22: PNA GCGCCTCCCCTGATTT without groups of consecutive guanines, negative control (PNA backbone, chemistry not fully specified) [reference compound] | 2 | 100 | 100 | 100 |  |  |  | 
11 | SEQ ID NO: 23: PNA ATATCCCCCGAGCTTC without groups of consecutive guanines, negative control (PNA backbone, chemistry not fully specified) [reference compound] | 2 | 100 | 100 | 100 |  |  |  | 
12 | SEQ ID NO: 66: PNA TCGGGAGCAGTGGGCA directed against MYCN (all peptide nucleic acid (PNA); antigene PNA, further chemistry not fully specified) |  |  |  |  | 73 | 57 | 41 | 60
13 | SEQ ID NO: 67: PNA GCGGGTCGCGGGCACG directed against MYCN (all peptide nucleic acid (PNA); antigene PNA) |  |  |  |  | 71 | 60 | 42 | 56
14 | SEQ ID NO: 68: PNA TGGAGGTCGGCGCCGG directed against MYCN (all peptide nucleic acid (PNA); antigene PNA) |  |  |  |  | 49 | 74 | 62 | 35
15 | SEQ ID NO: 69: PNA TCGGCGGGAGGTAAGG directed against MYCN (all peptide nucleic acid (PNA); antigene PNA) |  |  |  |  | 45 | 76 | 67 | 30
